This note sets out measurements from patent US20220002291A1, “PROTEOLYSIS-TARGETING CHIMERAS” (The Wistar Institute of Anatomy and Biology, priority 2018, published 2022).

Assay [1] concerns CDK6, CDK4, FOXM1, phospho-RB in BV173 and SUP-B15 cells. The assay is described as follows: Immunoblot for CDK6, CDK4, FOXM1 and phospho-RB in Ph+ ALL cell lines. In kind it is cell-based, human. How it is done:
Protein analysis. Cells were counted and lysed at a density of 10,000/μL in Laemmli Buffer supplemented with 5% β-Mercaptoethanol. Lysates were resolved on a 4-20% gradient polyacrylamide gels (Biorad, #4561095) and transferred onto a nitrocellulose membrane (Santa Cruz Biotechnology, #sc-3718) using a semi-dry trans-blot transfer cell (Bio-Rad). Membranes were then blocked in 5% non-fat dry milk/TBS-T and incubated with the following primary antibodies: CDK6 (rabbit, CST #13331), CDK6 (mouse, CST #3136), CDK4 (rabbit, CST #12790), CDK4 (rabbit, Bethyl Laboratories #A304-224), FOXM1 (rabbit, Santa Cruz Biotechnology #sc-502), phospho-RB Ser-780 (rabbit, CST #9307), phospho-RB […] (rabbit, CST #9308), β-ACTIN, (mouse, CST #3700).
Membranes were incubated with 1:10,000 HRP-conjugated secondary antibodies (Thermo Fisher Scientific, anti-mouse-HRP #31430, or anti rabbit-HRP #31460) and signals were visualized by chemiluminescent reaction using SuperSignal West Pico (Thermo Fisher Scientific #34580) or Dura (Thermo Fisher Scientific #34075) Chemiluminescent Substrates. When different antibodies were used to probe the same nitrocellulose membrane, previous signals were removed by incubation with 0.5% sodium azide for 10 minutes at RT or by stripping in 62 mM Tris-HCL pH 6.8, 2% SDS, 0.7% β-mercaptoethanol for 20 min at 50° C. The degradation constant (DC50) for the tested PROTACs was calculated in GraphPad Prism 6.0 software by plotting the densitometric values of CDK4/6 intensity normalized by the intensity of the loading control.
In general terms: A western blot detects proteins with antibodies after separation by electrophoresis.

Entries after “also recorded” stand apart in the source; their conditions may differ.

As for `CC(=O)c1c(C)c2cnc(Nc3ccc(N4CCN(C(=O)CNCCCCNC(=O)COc5cccc6c5C(=O)N(C5CCC(=O)NC5=O)C6=O)CC4)cn3)nc2n(C2CCCC2)c1=O` (stereo not drawn) [YX-2-107], the “CDK4/CDK6 kinase inhibition” value in the assay with CDK4 and CDK6 is “potently inhibit CDK6 and CDK4”. In addition, in assay [1] (BV173 and SUP-B15 cells), the “CDK4 expression / levels” value was “CDK4 expression did not increase”; the “CDK6 expression / levels” value is “levels of CDK6 were markedly decreased”; the “RB phosphorylation and FOXM1 expression” value was “inhibits S phase entry, RB phosphorylation, and FOXM1 expression but at a higher concentration than palbociclib; also recorded: slightly weaker compared to palbociclib; also recorded: inhibited S phase entry, RB phosphorylation, and FOXM1 expression”. Moreover, the “CDK6 expression after washing the PROTAC from the culture medium” value in assay [1] (BV173 cells treated 4 hours, then washed) is given as “very low for at least 6 hours, returning to the levels of untreated cells 12 hours after washing the PROTAC from the culture medium”. Also, the “CDK6 expression on co-treatment with proteasome inhibitor MG132” value in assay [1] (BV173 cells, 4 hours) is on record as “restored CDK6 expression at the levels of untreated cells; also recorded: restored CDK6 expression to the levels of untreated cells”. Besides, in assay [1] (BV173 cells, YX-2-107 2 μM, 4 hours), the “CDK6 downregulation on co-treatment with Palbociclib or thalidomide” value is “prevented the downregulation of CDK6”. Besides, in assay [1] (Ph+ ALL cells), the “selectivity of degradation, CDK6 over CDK4” value was “inhibits RB phosphorylation and reduces CDK6 protein levels selectively over CDK4”. In addition, in assay [1] (Ph+ BV173 cells), the “time course of CDK6 downregulation” value was “detected as early as one hour post-treatment with YX-2-107 and at 4 hours, levels of CDK6 were markedly suppressed; also recorded: detected as early as one hour post-treatment with YX-2-107, and at 4 hours CDK6 levels were markedly reduced”.
